# Reference: patent publication US8889666B2, “Quinolyl pyrrolo pyrimidyl condensed-ring compound and salt thereof” (Taiho Pharmaceutical Co., Ltd., priority 2012, dated 2014)
# How the values were obtained:
# Type in all cases: biochemical
# EGFR (T790M/L858R) = biological target: T1, EGFR (T790M/L858R) (Homo sapiens, UniProt P00533, L858R/T790M); experiment: EGFR (T790M/L858R) kinase inhibitory activity (in vitro); settings: for IC50: recombinant human protein, ATP 1 μM, 120 minutes; for inhibitory activities for EGFR (L858R), EGFR (d746-750), EGFR (T790M/L858R) and EGFR (d746-750/T790M), in words: summary of Table 1, all four mutant kinases
# T1 construct: purchased Carna Biosciences, Inc
# Procedure: 1) Measurement of EGFR (T790M/L858R) Kinase Inhibitory Activity
# The inhibitory activities of the compounds I-1, I-2, I-3, I-4, I-5, I-6, I-7, I-8, and I-9 for EGFR (T790M/L858R) kinase were measured.
# The materials were as follows. The substrate peptide was a biotinylated peptide (biotin-EEPLYWSFPAKKK) synthesized by reference to the amino acid sequence of FL-Peptide 22 (a reagent for LabChip® Series; Caliper Life Sciences, Inc.). The EGFR (T790M/L858R) was a purified recombinant human EGFR (T790M/L858R) protein purchased from Carna Biosciences, Inc.
# (§1) The measurement method was as follows. The compounds I-1, I-2, I-3, I-4, I-5, I-6, I-7, I-8, and I-9 were each dissolved in dimethylsulfoxide (DMSO), and then each serially diluted with DMSO. Next, the EGFR (T790M/L858R) protein, substrate peptide (final concentration: 250 nM), magnesium chloride (final concentration: 10 mM), manganese chloride (final concentration: 10 mM), ATP (final concentration: 1 μM), and the diluted DMSO solution of each compound (final concentration of DMSO: 2.5%) were added to a kinase reaction buffer (Carna Biosciences, Inc.), and the mixture was incubated at 25° C. for 120 minutes for kinase reaction. EDTA was added thereto to a final concentration of 24 mM to thereby terminate the reaction. Then, a detection solution containing europium (Eu)-labeled anti-phosphorylated tyrosine antibody PT66 (PerkinElmer) and SureLight APC-SA (PerkinElmer) was added, and the resulting mixture was allowed to stand at room temperature for 2 hours or more. Finally, the intensity of fluorescence under the excitation light with a wavelength of 337 nm was measured by a PHERAstar FS (BMG LABTECH) at two wavelengths of 620 nm and 665 nm. The level of phosphorylation of each test sample was calculated from the fluorescence intensity ratio of the two wavelengths in DMSO control and in the test sample, and the compound concentration at which phosphorylation was inhibited by 50% was determined as the IC50 value (nM) of each compound.
# EGFR (d746-750/T790M) = biological target: T2, EGFR (d746-750/T790M) (Homo sapiens, UniProt P00533, DEL746-750/T790M); experiment: EGFR (d746-750/T790M) kinase inhibitory activity (in vitro); settings: recombinant human protein, ATP 1.5 μM
# T2 construct: purchased Carna Biosciences, Inc
# Procedure: as §1
# 2) Measurement of EGFR (d746-750/T790M) Kinase Inhibitory Activity
# The inhibitory activities of the compounds I-1, I-2, I-3, I-4, I-5, I-6, I-7, I-8, and I-9 for EGFR (d746-750/T790M) kinase were measured.
# (§2) The materials were as follows. The EGFR (d746-750/T790M) was a purified recombinant human EGFR (d746-750/T790M) protein purchased from Carna Biosciences, Inc. The final concentration of ATP was 1.5 μM. As for other conditions, the same materials and methods as those used in the measurement of EGFR (T790M/L858R) kinase inhibitory activity were used to determine the IC50 value (nM) of each compound.
# EGFR (L858R) = biological target: T3, EGFR (L858R) (Homo sapiens, UniProt P00533, L858R); experiment: EGFR (L858R) kinase inhibitory activity (in vitro); settings: recombinant human protein, ATP 4 μM
# T3 construct: purchased Carna Biosciences, Inc
# Procedure: as §1
# 3) Measurement of EGFR (L858R) Kinase Inhibitory Activity
# The inhibitory activities of the compounds I-1, I-2, I-3, I-4, I-5, I-6, I-7, I-8, and I-9 for EGFR (L858R) kinase were measured.
# as §2, with “(L858R)” for “(d746-750/T790M)”, “4” for “1.5”
# EGFR (d746-750) = biological target: T4, EGFR (d746-750) (Homo sapiens, UniProt P00533, DEL746-750); experiment: EGFR (d746-750) kinase inhibitory activity (in vitro); settings: recombinant human protein, ATP 5 μM, 90 minutes
# T4 construct: purchased Carna Biosciences, Inc
# Procedure: as §1
# 4) Measurement of EGFR (d746-750) Kinase Inhibitory Activity
# The inhibitory activities of the compounds I-1, I-2, I-3, I-4, I-5, I-6, I-7, I-8, and I-9 for EGFR (d746-750) kinase activity were measured.
# as §2, with “(d746-750)” for “(d746-750/T790M)”, “5” for “1.5”, “μM. The incubation time for the kinase reaction was 90 minutes.” for “μM.”
# EGFR (WT) = biological target: T5, EGFR (WT) (Homo sapiens, UniProt P00533); experiment: EGFR (WT) kinase inhibitory activity (in vitro); settings: for IC50: cytoplasmic domain of human EGFR (WT), ATP 4.7 μM, substrate peptide 500 nM; for inhibitory activities for EGFR (WT) compared with the mutant EGFR proteins, in words: summary of Table 1
# T5 construct: the cytoplasmic domain of human EGFR (WT); FLAG (N); made in house; host or cells: baculovirus expression system, insect Sf9 cells
# Procedure: as §1
# The inhibitory activities of the compounds I-1, I-2, I-3, I-4, I-5, I-6, I-7, I-8, and I-9 on EGFR (WT) kinase were measured.
# The materials were as follows. As the EGFR (WT), the cytoplasmic domain of human EGFR (WT) in which a FLAG tag was fused to the N-terminus was expressed in a baculovirus expression system using insect Sf9 cells, and purified with anti-FLAG antibody agarose (Sigma-Aldrich). The final concentration of the substrate peptide was 500 nM, and the final concentration of ATP was 4.7 μM. As for other conditions, the same materials and methods as those used in the measurement of EGFR (T790M/L858R) kinase inhibitory activity were used to determine the IC50 value (nM) of each compound.
# T5 sequence (P00533 669-1210 limits assumed): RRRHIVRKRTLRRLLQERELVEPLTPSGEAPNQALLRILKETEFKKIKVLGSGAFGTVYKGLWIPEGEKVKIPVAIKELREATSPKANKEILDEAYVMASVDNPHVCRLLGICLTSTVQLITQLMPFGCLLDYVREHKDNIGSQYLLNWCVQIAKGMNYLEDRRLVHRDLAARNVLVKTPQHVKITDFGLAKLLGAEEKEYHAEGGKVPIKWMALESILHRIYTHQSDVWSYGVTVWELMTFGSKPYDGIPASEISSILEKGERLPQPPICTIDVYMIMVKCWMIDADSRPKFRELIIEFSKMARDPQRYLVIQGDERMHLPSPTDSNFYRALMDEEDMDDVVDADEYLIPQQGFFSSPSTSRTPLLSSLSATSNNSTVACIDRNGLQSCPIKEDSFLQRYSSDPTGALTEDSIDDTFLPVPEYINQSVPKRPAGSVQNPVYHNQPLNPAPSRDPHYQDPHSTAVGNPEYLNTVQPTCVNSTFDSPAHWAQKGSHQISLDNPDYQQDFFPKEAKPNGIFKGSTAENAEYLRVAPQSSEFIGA
# T1 sequence (P00533 25-1210 T790M/L858R): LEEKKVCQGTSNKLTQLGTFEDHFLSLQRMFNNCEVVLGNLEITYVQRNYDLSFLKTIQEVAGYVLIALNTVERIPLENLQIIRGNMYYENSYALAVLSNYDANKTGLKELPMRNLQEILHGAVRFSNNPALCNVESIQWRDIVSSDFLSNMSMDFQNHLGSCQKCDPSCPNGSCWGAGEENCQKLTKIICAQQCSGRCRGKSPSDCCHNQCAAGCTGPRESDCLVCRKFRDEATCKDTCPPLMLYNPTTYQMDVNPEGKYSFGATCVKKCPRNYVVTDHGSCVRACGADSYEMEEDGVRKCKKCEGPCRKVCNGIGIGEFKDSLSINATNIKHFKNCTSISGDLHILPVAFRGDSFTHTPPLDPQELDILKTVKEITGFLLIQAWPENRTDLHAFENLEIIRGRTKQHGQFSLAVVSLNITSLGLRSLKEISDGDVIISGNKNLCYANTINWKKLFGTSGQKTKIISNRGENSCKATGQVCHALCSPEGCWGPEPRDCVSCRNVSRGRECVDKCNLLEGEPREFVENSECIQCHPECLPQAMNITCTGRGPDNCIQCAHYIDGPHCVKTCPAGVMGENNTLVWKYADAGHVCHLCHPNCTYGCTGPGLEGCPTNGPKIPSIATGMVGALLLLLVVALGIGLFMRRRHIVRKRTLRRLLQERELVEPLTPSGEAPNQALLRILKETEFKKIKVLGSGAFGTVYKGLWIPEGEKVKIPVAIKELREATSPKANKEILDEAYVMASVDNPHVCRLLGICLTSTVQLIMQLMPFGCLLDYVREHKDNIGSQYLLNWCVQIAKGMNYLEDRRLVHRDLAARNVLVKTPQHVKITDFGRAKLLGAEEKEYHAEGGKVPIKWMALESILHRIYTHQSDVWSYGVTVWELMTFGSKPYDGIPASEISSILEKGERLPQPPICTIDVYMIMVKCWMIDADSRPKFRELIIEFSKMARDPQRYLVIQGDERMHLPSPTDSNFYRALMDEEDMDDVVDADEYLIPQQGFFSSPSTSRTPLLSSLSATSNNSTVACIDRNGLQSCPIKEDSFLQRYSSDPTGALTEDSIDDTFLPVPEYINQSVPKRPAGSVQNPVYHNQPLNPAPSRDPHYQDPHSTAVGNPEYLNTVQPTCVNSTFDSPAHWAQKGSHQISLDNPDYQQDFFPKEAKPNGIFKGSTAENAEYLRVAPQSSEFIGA
# T2 sequence (P00533 with tags, fused parts or gaps DEL746-750/T790M limits assumed): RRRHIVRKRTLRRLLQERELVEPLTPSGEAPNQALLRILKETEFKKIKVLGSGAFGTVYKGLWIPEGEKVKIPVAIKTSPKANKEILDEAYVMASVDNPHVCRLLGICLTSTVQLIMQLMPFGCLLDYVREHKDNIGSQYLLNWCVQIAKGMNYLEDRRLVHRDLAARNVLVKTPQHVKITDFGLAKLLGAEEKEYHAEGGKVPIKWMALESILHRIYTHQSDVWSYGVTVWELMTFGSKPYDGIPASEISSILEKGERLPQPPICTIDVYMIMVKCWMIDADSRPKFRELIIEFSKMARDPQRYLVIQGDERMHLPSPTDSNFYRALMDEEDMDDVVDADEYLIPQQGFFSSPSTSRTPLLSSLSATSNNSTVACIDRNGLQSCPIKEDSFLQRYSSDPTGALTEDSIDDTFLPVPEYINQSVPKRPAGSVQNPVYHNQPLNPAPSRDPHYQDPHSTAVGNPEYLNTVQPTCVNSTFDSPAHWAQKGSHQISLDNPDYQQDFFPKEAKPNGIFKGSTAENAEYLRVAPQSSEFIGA
# T4 sequence (P00533 with tags, fused parts or gaps DEL746-750 limits assumed): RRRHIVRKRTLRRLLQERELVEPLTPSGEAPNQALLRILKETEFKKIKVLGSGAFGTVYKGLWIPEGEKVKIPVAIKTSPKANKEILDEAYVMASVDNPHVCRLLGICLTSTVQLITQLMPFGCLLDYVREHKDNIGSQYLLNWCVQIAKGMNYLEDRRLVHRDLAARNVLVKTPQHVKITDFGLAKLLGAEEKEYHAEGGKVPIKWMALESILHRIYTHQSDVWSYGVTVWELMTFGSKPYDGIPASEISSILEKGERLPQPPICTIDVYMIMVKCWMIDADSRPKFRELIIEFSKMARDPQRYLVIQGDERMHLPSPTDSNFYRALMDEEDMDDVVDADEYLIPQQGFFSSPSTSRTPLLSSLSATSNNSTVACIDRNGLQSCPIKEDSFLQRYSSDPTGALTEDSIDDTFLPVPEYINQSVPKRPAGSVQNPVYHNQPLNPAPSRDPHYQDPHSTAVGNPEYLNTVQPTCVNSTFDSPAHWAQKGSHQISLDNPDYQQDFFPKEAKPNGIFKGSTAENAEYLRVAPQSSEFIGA
# T3 sequence (P00533 25-1210 L858R): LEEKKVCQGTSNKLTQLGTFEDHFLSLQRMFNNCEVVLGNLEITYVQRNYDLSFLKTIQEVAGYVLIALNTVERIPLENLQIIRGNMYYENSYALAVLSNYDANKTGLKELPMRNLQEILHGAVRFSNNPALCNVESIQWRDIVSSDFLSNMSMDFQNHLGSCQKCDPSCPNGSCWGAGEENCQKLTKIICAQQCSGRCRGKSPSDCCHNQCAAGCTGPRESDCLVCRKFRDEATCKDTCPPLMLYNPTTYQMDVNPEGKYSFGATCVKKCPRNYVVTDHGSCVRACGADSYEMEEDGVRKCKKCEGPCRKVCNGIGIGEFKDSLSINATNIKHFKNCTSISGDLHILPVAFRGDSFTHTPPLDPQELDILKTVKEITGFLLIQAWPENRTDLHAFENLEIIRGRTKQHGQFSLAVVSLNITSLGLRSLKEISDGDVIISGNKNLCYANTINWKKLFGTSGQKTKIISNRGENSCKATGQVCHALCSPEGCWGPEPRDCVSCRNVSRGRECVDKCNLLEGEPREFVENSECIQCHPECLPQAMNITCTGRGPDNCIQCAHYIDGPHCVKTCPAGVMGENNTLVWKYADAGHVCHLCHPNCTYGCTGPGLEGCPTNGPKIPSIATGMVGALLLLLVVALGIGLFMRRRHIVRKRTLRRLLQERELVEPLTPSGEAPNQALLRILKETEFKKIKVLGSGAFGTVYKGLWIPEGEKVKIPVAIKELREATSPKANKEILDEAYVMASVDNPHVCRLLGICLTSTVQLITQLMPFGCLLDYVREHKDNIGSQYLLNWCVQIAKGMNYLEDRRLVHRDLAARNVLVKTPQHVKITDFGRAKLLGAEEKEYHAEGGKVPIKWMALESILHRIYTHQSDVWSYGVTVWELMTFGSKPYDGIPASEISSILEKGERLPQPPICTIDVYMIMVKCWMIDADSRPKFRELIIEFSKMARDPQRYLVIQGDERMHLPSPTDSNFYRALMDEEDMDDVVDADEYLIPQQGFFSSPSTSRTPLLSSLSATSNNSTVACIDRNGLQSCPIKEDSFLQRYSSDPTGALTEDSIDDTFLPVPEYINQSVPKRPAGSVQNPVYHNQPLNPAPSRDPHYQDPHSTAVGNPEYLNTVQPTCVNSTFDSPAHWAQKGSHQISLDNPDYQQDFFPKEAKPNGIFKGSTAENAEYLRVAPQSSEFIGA
Structure (SMILES),"inhibitory activity for these EGFR kinases, in words (EGFR (T790M/L858R); all EGFR kinases of Test Example 1)",IC50 (EGFR (T790M/L858R)),IC50 (EGFR (d746-750/T790M)),IC50 (EGFR (L858R)),IC50 (EGFR (d746-750)),IC50 (EGFR (WT)),"inhibitory activities for EGFR (L858R), EGFR (d746-750), EGFR (T790M/L858R) and EGFR (d746-750/T790M), in words (EGFR (T790M/L858R))","inhibitory activities for EGFR (WT) compared with the mutant EGFR proteins, in words (EGFR (WT))"
"Nc1ncnc2c1c(-c1cccc(NC(=O)c3ccccc3)c1)c1n2CCCC1 [Comp. Ex. 1, N-(3-(4-amino-6,7,8,9-tetrahydropyrimido[5,4-b]indolizin-5-yl)phenyl)benzamide, reference compound]",almost no inhibitory activity,> 5000 nM,> 5000 nM,> 5000 nM,1500 nM,> 5000 nM,,
"C=CC(=O)N[C@H]1CCc2c(-c3cnc4ccccc4c3)c3c(N)ncnc3n2CC1 [Compound I-7, (S)-N-(4-amino-5-(quinolin-3-yl)-7,8,9,10-tetrahydro-6H-pyrimido[5′,4′:4,5]pyrrolo[1,2-a]azepin-8-yl)acrylamide]",,1.4 nM,0.5 nM,2.9 nM,1.8 nM,33 nM,potent inhibitory activities,lower than those for the above mutant EGFR proteins
"C=CC(=O)N[C@H]1CCCc2c(-c3cnc4ccccc4c3)c3c(N)ncnc3n2C1 [Compound I-8, (S)-N-(4-amino-5-(quinolin-3-yl)-7,8,9,10-tetrahydro-6H-pyrimido[5′,4′:4,5]pyrrolo[1,2-a]azepin-9-yl)acrylamide]",,18 nM,13 nM,41 nM,20 nM,490 nM,potent inhibitory activities,lower than those for the above mutant EGFR proteins
"C=CC(=O)N[C@@H]1CCc2c(-c3cnc4ccccc4c3)c3c(N)ncnc3n2C1 (single isomer, unassigned) [Compound I-1]",,5.3 nM,2.8 nM,14 nM,13 nM,170 nM,potent inhibitory activities,lower than those for the above mutant EGFR proteins
"Nc1ncnc2c1c(-c1cnc3ccccc3c1)c1n2C[C@@H](NC(=O)/C=C\Cl)CC1 [Compound I-6, (S,Z)—N-(4-amino-5-(quinolin-3-yl)-6,7,8,9-tetrahydropyrimido[5,4-b]indolizin-8-yl)-3-chloroacrylamide]",,1.2 nM,1.2 nM,2.9 nM,3.6 nM,41 nM,potent inhibitory activities,lower than those for the above mutant EGFR proteins
"C=CC(=O)N[C@@H]1CCCc2c(-c3cnc4ccccc4c3)c3c(N)ncnc3n2C1 [Compound I-9, (R)-N-(4-amino-5-(quinolin-3-yl)-7,8,9,10-tetrahydro-6H-pyrimido[5′,4′:4,5]pyrrolo[1,2-a]azepin-9-yl)acrylamide]",,160 nM,82 nM,350 nM,270 nM,3600 nM,potent inhibitory activities,lower than those for the above mutant EGFR proteins
"CN(C)C/C=C/C(=O)NC1CCc2c(-c3cnc4ccccc4c3)c3c(N)ncnc3n2C1 (stereo not shown) [Compound I-4, (E)-N-(4-amino-5-(quinolin-3-yl)-6,7,8,9-tetrahydropyrimido[5,4-b]indolizin-8-yl)-4-(dimethylamino)-2-butenamide]",,6.7 nM,4.1 nM,12 nM,10 nM,120 nM,potent inhibitory activities,lower than those for the above mutant EGFR proteins
"Nc1ncnc2c1c(-c1cnc3ccccc3c1)c1n2C[C@@H](NC(=O)/C=C/Cl)CC1 [Compound I-5, (S,E)-N-(4-amino-5-(quinolin-3-yl)-6,7,8,9-tetrahydropyrimido[5,4-b]indolizin-8-yl)-3-chloroacrylamide]",,0.4 nM,0.3 nM,0.7 nM,0.5 nM,5.9 nM,potent inhibitory activities,lower than those for the above mutant EGFR proteins
